# Measurements from US20250188043A1 (ReproNovo SA, priority 2023, published 2025).
# Columns and labels:
# [1] = test system: obese and overweight men with hypogonadism and low total motile sperm count; assay: Extension of treatment to 48 total weeks; type: in vivo, human; details: for serum testosterone change from baseline / serum testosterone level: 48-week period
# [2] = test system: obese and overweight men with hypogonadism and low total motile sperm count; assay: Randomized, double-blind phase IIb trial of oral leflutrozole; type: in vivo, human; details: for Semen Volume, change from baseline, LS mean difference (95% CI) vs. placebo / Sperm Morphology, change from baseline, LS mean difference (95% CI) vs. placebo / Sperm Motility, change from baseline, LS mean difference (95% CI) vs. placebo / Spermatozoa, change from baseline, LS mean difference (95% CI) vs. placebo / Total Motile Sperm Count, change from baseline, LS mean difference (95% CI) vs. placebo: Week 20; for Estradiol, Initial: baseline; for population with testosterone normalization: day 8 of treatment (2nd visit); for Estradiol, Change: to week 24; for FSH increase / estradiol decrease / mean LH increase: week 24
# Protocol: The primary endpoint of the study is a change in testosterone levels after 24 weeks of treatment. […] Normalization of testosterone, for the purposes of this trial, was considered to be between 300 and 1000 ng/dL (10.4 and 35 nmol/L, respectively). Levels above 1000 ng/dL are furthermore considered abnormal.
# P-glycoprotein = P-glycoprotein (Homo sapiens, UniProt P08183); assay: P-glycoprotein inhibition; type: in vitro ADME; details: at concentrations above 200 μM
# CYP2C9 = target: T1, CYP2C9 (Homo sapiens, UniProt P11712); assay: CYP inhibition, pooled human liver microsomes, probe substrates; type: in vitro ADME; details: up to 100 μM
# T1 construct: assessed by pooled human liver microsomes using enzyme selective probe substrates; from tissue; host or cells: pooled human liver microsomes
# [3] = Pharmacokinetics in naïve female mice; details: mouse, in vivo, NMP-PEG300 10/90
# [4] = Stability program: degradation product formation and appearance; type: physicochemical; details: mixtures of 1% leflutrozole with various excipients, 1 week, 50° C. and 75% relative humidity
# Excerpt: The mixtures of excipients used for this study are as follows: mixture 1 (maltodextrin, microcrystalline cellulose, sodium carboxymethylcellulose, Aerosil 200, Cutina HR; 64:29:5:0.5:1.5 ratio), mixture 2 (microcrystalline cellulose, spray dried lactose, sodium carboxylmethyl starch, Aerosil 200, magnesium stearate; 20:73.5:5:0.5:1 ratio), and mixture 3 (microcrystalline cellulose, mannitol, crospovidone, magnesium stearate; 15:79.5:4:1.5 ratio). The buffered solutions are aqueous.
# Chain of P-glycoprotein (P08183 whole entry): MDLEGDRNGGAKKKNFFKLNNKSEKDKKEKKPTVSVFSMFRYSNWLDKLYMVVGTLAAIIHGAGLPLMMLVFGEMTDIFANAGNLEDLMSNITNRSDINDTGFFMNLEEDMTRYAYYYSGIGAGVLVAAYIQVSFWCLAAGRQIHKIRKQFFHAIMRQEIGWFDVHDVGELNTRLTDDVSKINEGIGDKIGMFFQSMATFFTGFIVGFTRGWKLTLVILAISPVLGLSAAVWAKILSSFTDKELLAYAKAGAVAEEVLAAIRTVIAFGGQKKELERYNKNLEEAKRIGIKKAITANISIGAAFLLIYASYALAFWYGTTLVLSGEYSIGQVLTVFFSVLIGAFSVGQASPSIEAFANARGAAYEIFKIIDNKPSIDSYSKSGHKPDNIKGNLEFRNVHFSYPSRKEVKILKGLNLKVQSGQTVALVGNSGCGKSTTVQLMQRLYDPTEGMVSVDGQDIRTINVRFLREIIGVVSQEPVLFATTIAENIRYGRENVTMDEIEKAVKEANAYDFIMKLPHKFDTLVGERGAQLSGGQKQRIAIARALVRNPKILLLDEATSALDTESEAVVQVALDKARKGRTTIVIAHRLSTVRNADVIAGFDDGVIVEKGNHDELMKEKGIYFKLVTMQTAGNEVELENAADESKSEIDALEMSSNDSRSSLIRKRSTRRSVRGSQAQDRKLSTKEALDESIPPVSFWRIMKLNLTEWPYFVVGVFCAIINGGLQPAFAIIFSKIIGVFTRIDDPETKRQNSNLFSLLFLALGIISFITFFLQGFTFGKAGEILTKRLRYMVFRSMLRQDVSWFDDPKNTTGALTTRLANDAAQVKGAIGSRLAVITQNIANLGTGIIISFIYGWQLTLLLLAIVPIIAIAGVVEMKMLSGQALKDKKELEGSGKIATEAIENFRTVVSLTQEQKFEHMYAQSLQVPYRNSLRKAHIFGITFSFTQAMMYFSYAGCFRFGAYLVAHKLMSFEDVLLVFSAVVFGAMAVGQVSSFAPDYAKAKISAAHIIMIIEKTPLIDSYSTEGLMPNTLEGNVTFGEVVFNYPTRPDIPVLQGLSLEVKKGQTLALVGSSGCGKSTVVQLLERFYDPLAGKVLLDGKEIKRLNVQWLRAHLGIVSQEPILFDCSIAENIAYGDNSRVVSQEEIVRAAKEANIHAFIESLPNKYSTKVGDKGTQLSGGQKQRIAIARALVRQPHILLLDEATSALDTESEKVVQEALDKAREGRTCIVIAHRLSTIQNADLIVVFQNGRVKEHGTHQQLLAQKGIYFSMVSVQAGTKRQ
# T1 sequence (P11712 whole entry): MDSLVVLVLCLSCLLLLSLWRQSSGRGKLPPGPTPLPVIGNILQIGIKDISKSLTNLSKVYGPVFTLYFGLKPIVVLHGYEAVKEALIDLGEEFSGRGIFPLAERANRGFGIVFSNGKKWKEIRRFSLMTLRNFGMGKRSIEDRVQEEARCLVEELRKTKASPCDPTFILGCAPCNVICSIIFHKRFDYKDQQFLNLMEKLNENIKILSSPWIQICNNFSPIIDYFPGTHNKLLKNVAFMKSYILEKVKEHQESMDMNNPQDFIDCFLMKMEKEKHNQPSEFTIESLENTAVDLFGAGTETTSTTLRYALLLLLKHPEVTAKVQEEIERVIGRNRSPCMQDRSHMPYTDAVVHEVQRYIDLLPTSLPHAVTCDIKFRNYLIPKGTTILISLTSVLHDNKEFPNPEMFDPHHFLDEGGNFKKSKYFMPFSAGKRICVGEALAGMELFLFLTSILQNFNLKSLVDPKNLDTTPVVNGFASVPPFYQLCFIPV
smiles,measurement,setting,value
"N#Cc1ccc(C(F)(c2ccc(C#N)cc2)n2cncn2)cc1 [leflutrozole, 4-[(4-cyanophenyl)-fluoro-(1,2,4-triazol-1-yl)methyl]benzonitrile]",bone specific alkaline phosphatase,[1]; 0.1 mg treatment arm only,significant increase
same,serum testosterone change from baseline,[1]; 0.1 mg,243.0 ng/dL
same,serum testosterone level,[1]; 0.1 mg,494.9 ng/dL
same,serum testosterone change from baseline,[1]; 0.3 mg,290.6 ng/dL
same,serum testosterone level,[1]; 0.3 mg,549.7 ng/dL
same,serum testosterone change from baseline,[1]; 1.0 mg,376.2 ng/dL
same,serum testosterone level,[1]; 1.0 mg,595.1 ng/dL
same,"bone turnover markers (type I collagen C-telopeptides, procollagen-1 N-terminal propeptide, osteocalcin)",[1]; by week 48,increases in all leflutrozole treatment groups
same,change in BMD for the hip or femoral neck,[1]; week 48,no significant change
same,clinical meaning of reductions in BMD of the lumbar spine,[1]; week 48,did not indicate clinically meaningful osteopenia or osteoporosis
same,percentage decrease of lumbar BMD (DEXA),"[1]; week 48, any treatment group",≥ −3%
same,"Estradiol, Week 24 Measurement",[2]; 0.1 mg,12.94 pg/mL
same,"subjects with normalized testosterone (300-1000 ng/dL), number","[2]; 0.1 mg weekly, after 24 weeks",59 subjects
same,"Semen Volume, change from baseline, LS mean difference (95% CI) vs. placebo",[2]; 0.1 mg,0.7 mL
same,"Sperm Morphology, change from baseline, LS mean difference (95% CI) vs. placebo",[2]; 0.1 mg,−1.9 %
same,"Sperm Motility, change from baseline, LS mean difference (95% CI) vs. placebo",[2]; 0.1 mg,2.7 %
same,"Spermatozoa, change from baseline, LS mean difference (95% CI) vs. placebo",[2]; 0.1 mg,"130.4 (−65.3, 10^6/ejaculate"
same,"Total Motile Sperm Count, change from baseline, LS mean difference (95% CI) vs. placebo",[2]; 0.1 mg,"86.3 (−24.5, 10^6/ejaculate"
same,"Estradiol, Initial",[2]; 0.1 mg,24.69 pg/mL
same,population with testosterone normalization,[2]; 0.1 mg,80.6%
same,"Estradiol, Change",[2]; 0.1 mg,-11.75 pg/mL
same,FSH increase,[2]; 0.1 mg,4.836 mlU/mL
same,estradiol decrease,[2]; 0.1 mg,11.8 pg/mL
same,mean LH increase,[2]; 0.1 mg,2.108 mlU/mL
same,"Estradiol, Week 24 Measurement",[2]; 0.3 mg,11.84 pg/mL
same,"subjects with normalized testosterone (300-1000 ng/dL), number","[2]; 0.3 mg weekly, after 24 weeks",62 subjects
same,"Semen Volume, change from baseline, LS mean difference (95% CI) vs. placebo",[2]; 0.3 mg,0.8 mL
same,"Sperm Morphology, change from baseline, LS mean difference (95% CI) vs. placebo",[2]; 0.3 mg,−2.6 %
same,"Sperm Motility, change from baseline, LS mean difference (95% CI) vs. placebo",[2]; 0.3 mg,−0.1 %
same,"Spermatozoa, change from baseline, LS mean difference (95% CI) vs. placebo",[2]; 0.3 mg,"90.2 (−126.5, 10^6/ejaculate"
same,"Total Motile Sperm Count, change from baseline, LS mean difference (95% CI) vs. placebo",[2]; 0.3 mg,"54.2 (−77.3, 10^6/ejaculate"
same,"Estradiol, Initial",[2]; 0.3 mg,24.80 pg/mL
same,population with testosterone normalization,[2]; 0.3 mg,89.1%
same,"Estradiol, Change",[2]; 0.3 mg,-12.96 pg/mL
same,FSH increase,[2]; 0.3 mg,6.183 mlU/mL
same,estradiol decrease,[2]; 0.3 mg,13 pg/mL
same,mean LH increase,[2]; 0.3 mg,3.560 mlU/mL
same,"Estradiol, Week 24 Measurement",[2]; 1.0 mg,8.63 pg/mL
same,"subjects with normalized testosterone (300-1000 ng/dL), number","[2]; 1.0 mg weekly, after 24 weeks",63 subjects
same,"subjects with normalized testosterone (300-1000 ng/dL), percent","[2]; 1.0 mg weekly, after 24 weeks",94.0%
same,"Semen Volume, change from baseline, LS mean difference (95% CI) vs. placebo",[2]; 1.0 mg,1.4 mL
same,"Sperm Morphology, change from baseline, LS mean difference (95% CI) vs. placebo",[2]; 1.0 mg,−4.1 %
same,"Sperm Motility, change from baseline, LS mean difference (95% CI) vs. placebo",[2]; 1.0 mg,−1.2 %
same,"Spermatozoa, change from baseline, LS mean difference (95% CI) vs. placebo",[2]; 1.0 mg,"270.1 (65.0, 10^6/ejaculate"
same,"Total Motile Sperm Count, change from baseline, LS mean difference (95% CI) vs. placebo",[2]; 1.0 mg,"127.7 (12.6, 10^6/ejaculate"
same,"Estradiol, Initial",[2]; 1.0 mg,23.47 pg/mL
same,population with testosterone normalization,[2]; 1.0 mg,89.1%
same,"Estradiol, Change",[2]; 1.0 mg,-14.84 pg/mL
same,FSH increase,[2]; 1.0 mg,8.282 mlU/mL
same,estradiol decrease,[2]; 1.0 mg,14.8 pg/mL
same,mean LH increase,[2]; 1.0 mg,5.209 mlU/mL
same,primary endpoint (≥75% of subjects with normalization of testosterone by week 24),[2]; all leflutrozole treatment groups,met in all leflutrozole treatment groups
same,"changes from baseline vs placebo in triglycerides, HbA1c, glucose and C-reactive protein","[2]; during the study, p>0.05",No statistically significant changes
same,insulin and HOMA-IR compared with placebo,"[2]; leflutrozole treatment groups, none met statistical significance",Consistent decreases
same,"semen volume improvement, LS mean difference (95% CI)",[2]; stated as across all active treatment arms,"1.4 (0.4, 2.3) mL"
same,sperm count compared to placebo (in words),"[2]; weeks 12 and 20, all three treatment arms",increases were observed across all three treatment arms compared to placebo
same,inhibition of P-glycoprotein,P-glycoprotein,not determined to be an inhibitor
same,IC50,CYP2C9,> 50 µM
same,AUC(0-inf),"[3]; iv, 1 mg/kg i.v.",34 µM·h
same,AUC(0-t),"[3]; iv, 1 mg/kg i.v.",21 µM·h
same,clearance,"[3]; iv, 1 mg/kg i.v.",1.5 mL/min
same,half-life,"[3]; iv, 1 mg/kg i.v.",13 h
same,AUC(0-inf),"[3]; po, 2.5 mg/kg p.o.",70.2 µM·h
same,AUC(0-t),"[3]; po, 2.5 mg/kg p.o.",61.7 µM·h
same,Cmax,"[3]; po, 2.5 mg/kg p.o.",2930 nM
same,half-life,"[3]; po, 2.5 mg/kg p.o.",13 h
same,impurities formed,[4],at most 0.5%
